Patent US9290745B2, “Luciferase biosensor” (PROMEGA CORPORATION, priority 2003, dated 2016)

Biological target: T1, Luc2-CaM fusion (UniProt P08659+P0DP23, D3I/E2D/N119G/N50D)
T1 construct: made in house; host or cells: cell-free: TnT Coupled Reticulocyte Lysate System
Test: C-terminal modulated luciferase fusion system (calmodulin)
Format: biochemical, human

Row | SMILES | effect on EGTA-induced increase in luminescence (1 μl 100 mM CaCl2 added after EGTA) | increase of luminescence (EGTA final concentration 3 mM, Luc2-CaM TnT lysate in LAR)
1 | [Ca+2].[Cl-].[Cl-] [Ca^+2, CaCl2] | can be reversed | 
2 | O=C(O)CN(CCOCCOCCN(CC(=O)O)CC(=O)O)CC(=O)O [EGTA] |  | about 9 fold
